US20260091026A1, “METHODS OF TREATING INFLAMMATORY DISEASES” (INTERLINE THERAPEUTICS, INC., priority 2023, published 2026)

Experiments:
[1] = target: T1, GST-RIPK2 fusion protein (human RIPK2 amino acids 1-310) (Homo sapiens, UniProt O43353); assay: RIPK2 binding competition assay (TR-FRET, Tracer 199); details: displacement of Tracer 199 (10 nM), 45 min at 22° C.
T1 construct: made in house; host or cells: baculovirus-infected Sf9 cells
Description: The ability of selected compounds of Formulas (I) and (II) to inhibit the binding of an Alexa647-labelled ATP-competitive kinase inhibitor to a GST-RIPK2 fusion protein was quantified employing the TR-FRET-based RIPK2 binding competition assay as described in the following paragraphs.
Recombinant fusion protein of N-terminal Glutathione-S-Transferase (GST) and a fragment of human RIPK2 (amino acids 1-310 of accession number 043353), expressed in baculovirus infected Sf9 cells, purified via glutathione affinity chromatography, was used as GST-RIPK2 fusion protein. Tracer 199 from Life Technologies (catalogue no. PR9115B) was used as Alexa647-labelled ATP-competitive kinase inhibitor.
For the assay, 50 nL of a 100-fold concentrated solution of each test compound in DMSO was pipetted into either a black low volume 384-well microtiter plate or a black 1536-well microtiter plate (both Greiner Bio-One, Frickenhausen, Germany), 3 μL solution of Tracer 199 (16.7 nM=>final concentration in 5 μL assay volume is 10 nM) in aqueous assay buffer (25 mM Tris/HCl pH 7.5, 10 mM magnesium chloride (MgCl2), 5 mM β-glycerophosphate, 2.5 mM dithiothreitol (DTT), 0.5 mM ethylene glycol-bis(2-aminoethylether)-N,N,N′,N′-tetraacetic acid (EGTA), 0.5 mM sodium ortho-vanadate, 0.01% (w/v) bovine serum albumin (BSA), 0.005% (w/v) Pluronic F-127 (Sigma)) were added. Then the binding competition was started by the addition of 2 μL of a solution of the GST-RIPK2 fusion protein (2.5 nM=>final conc. in the 5 μL assay volume is 1 nM) and of Anti-GST-Tb (1.25 nM=>final conc. in the 5 μL assay volume is 0.5 nM), a Lumi4®—Tb cryptate-conjugated anti-GST antibody from PerkinElmer (catalogue no 61GSTTAH), in assay buffer.
The resulting mixture was incubated 45 min at 22° C. to allow the formation of a complex between the Tracer 199, the fusion protein and Anti-GST-Tb. Subsequently, the amount of this complex was evaluated by measurement of the resonance energy transfer from the Tb-cryptate to the Tracer 199. Therefore, the fluorescence emissions at 620 nm and 665 nm after excitation at 337 nm were measured in a TR-FRET reader, e.g. a Pherastar FS(BMG Labtechnologies, Offenburg, Germany) or a Viewlux (PerkinElmer). The ratio of the emissions at 665 nm and at 620 nm was taken as the measure of the amount of the complex. The data were normalized (assay reaction without inhibitor=0% activity, all other assay components but no GST-RIPK2 fusion protein=−100% activity).

RIPK2 (KD)/XIAP (BIR2) = target: T2, RIPK2 (KD)/XIAP (BIR2) (Homo sapiens, UniProt O43353); assay: RIPK2-XIAP binding competition PPI assay (TR-FRET); details: for Emax: 50 nM of GSK583 = -100% activity, read-out: PPI Amax; for IC50: GST-RIPK2 / His-XIAP (BIR2)-avi, 120 min at 23° C.
T2 construct: made in house; host or cells: baculovirus-infected Sf9 cells
T2 sequence (O43353 1-310): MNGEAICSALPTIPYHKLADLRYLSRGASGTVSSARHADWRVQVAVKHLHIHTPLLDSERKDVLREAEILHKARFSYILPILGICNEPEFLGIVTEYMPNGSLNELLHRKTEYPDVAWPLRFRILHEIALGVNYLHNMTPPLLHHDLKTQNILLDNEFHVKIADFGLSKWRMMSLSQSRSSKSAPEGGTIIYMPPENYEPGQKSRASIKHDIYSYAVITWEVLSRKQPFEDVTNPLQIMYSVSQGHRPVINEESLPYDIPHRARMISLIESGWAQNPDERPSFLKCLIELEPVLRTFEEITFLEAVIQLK
Method in brief: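 After 2 h at 23 °C, complex formation was read as the 665/520 nm emission ratio (337 nm excitation), scaled between uninhibited reaction and 50 nM GSK583. The mix held 1 nM human RIPK2 kinase fragment-GST, 25 nM His-tagged XIAP BIR2 and Tb/XL665 antibodies in pH 7.5 Tris buffer containing vanadate and glycerophosphate.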

[2] = test system: THP1-Dual cells, NF-κB pathway (SEAP); assay: THP-1 Dual cell SEAP assay (L18-MDP stimulated); format: cell-based; details: Homo sapiens, 10 ng/mL L18-MDP, 20-24 h, SEAP readout, read-out: IFNγ THP1 IC50
Method in brief: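 IC50 values come from non-linear fits of % inhibition of SEAP, measured as QUANTI-Blue optical density (620-655 nm, 2 h) in media-blanked supernatants. These were taken from THP1-Dual cells treated with compound for 30 min before overnight exposure to 10 ng/mL L18-MDP final at 37 °C.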

T1 sequence (O43353 1-310): as above

With `COc1cc2ncc(-n3cc(NC(=O)CC4CCCCC4)cn3)n2cc1S(=O)(=O)C(C)(C)C` [Example 167, N-(1-(6-(tert-butylsulfonyl)-7-methoxyimidazo[1,2-a]pyridin-3-yl)-1H-pyrazol-4-yl)-2-cyclohexylacetamide] the IC50 [1] was > 1 µM, the Emax (RIPK2 (KD)/XIAP (BIR2)) was ≥ 80% and the IC50 (RIPK2 (KD)/XIAP (BIR2)) was > 1 µM. For the same compound, the IC50 [2] was > 2.5 µM.

With `COc1cc2ncc(-n3cc(NC(=O)[C@@H]4C[C@H]4c4ccccc4)cn3)n2cc1S(=O)(=O)C(C)(C)C` [Example 168, (1R,2R)-N-(1-(6-(tert-butylsulfonyl)-7-methoxyimidazo[1,2-a]pyridin-3-yl)-1H-pyrazol-4-yl)-2-phenylcyclopropane-1-carboxamide] the IC50 [1] was > 1 µM, the Emax (RIPK2 (KD)/XIAP (BIR2)) was ≥ 80% and the IC50 (RIPK2 (KD)/XIAP (BIR2)) was > 1 µM. The IC50 [2] was > 2.5 µM.

`COc1cc2ncc(-n3cc(NC(=O)C4(F)CCCCC4)cn3)n2cc1S(=O)(=O)C(C)(C)C` [Example 169, N-(1-(6-(tert-butylsulfonyl)-7-methoxyimidazo[1,2-a]pyridin-3-yl)-1H-pyrazol-4-yl)-1-fluorocyclohexane-1-carboxamide] was tested, and the IC50 [1] was 0.2 to 0.5 µM, the Emax (RIPK2 (KD)/XIAP (BIR2)) was ≥ 80% and the IC50 (RIPK2 (KD)/XIAP (BIR2)) was > 1 µM. For the same compound, the IC50 [2] was > 2.5 µM.

With `COc1cc2ncc(-n3cc(NC(=O)c4ccccc4)cn3)n2cc1S(=O)(=O)C(C)(C)C` [Example 170, N-(1-(6-(tert-butylsulfonyl)-7-methoxyimidazo[1,2-a]pyridin-3-yl)-1H-pyrazol-4-yl)benzamide] the IC50 [1] was > 1 µM, the Emax (RIPK2 (KD)/XIAP (BIR2)) was 55 to 80% and the IC50 (RIPK2 (KD)/XIAP (BIR2)) was > 1 µM. For the same compound, the IC50 [2] was > 2.5 µM.

In the case of `COc1cc2ncc(-n3cc(NC(=O)[C@H]4C[C@H]4c4ccccc4)cn3)n2cc1S(=O)(=O)C(C)(C)C` [Example 171, (1S,2R)-N-(1-(6-(tert-butylsulfonyl)-7-methoxyimidazo[1,2-a]pyridin-3-yl)-1H-pyrazol-4-yl)-2-phenylcyclopropane-1-carboxamide], the IC50 [1] is reported as < 0.2 µM, the Emax (RIPK2 (KD)/XIAP (BIR2)) is reported as ≥ 80% and the IC50 (RIPK2 (KD)/XIAP (BIR2)) is reported as 0.1 to 1 µM. For the same compound, the IC50 [2] was 0.5 to 2.5 µM.

With `COc1cc2ncc(-n3cc(NC(=O)[C@H]4CC[C@@H](O)CC4)cn3)n2cc1S(=O)(=O)C(C)(C)C` [Example 172, (1s,4s)-N-(1-(6-(tert-butylsulfonyl)-7-methoxyimidazo[1,2-a]pyridin-3-yl)-1H-pyrazol-4-yl)-4-hydroxycyclohexane-1-carboxamide] the IC50 [1] was > 1 µM, the Emax (RIPK2 (KD)/XIAP (BIR2)) was 30 to 55% and the IC50 (RIPK2 (KD)/XIAP (BIR2)) was > 1 µM. The IC50 [2] was > 2.5 µM.

With `COc1cc2ncc(-n3cc(N(C)C(=O)Cc4ccccc4Cl)cn3)n2cc1S(=O)(=O)C(C)(C)C` [Example 173, N-(1-(6-(tert-butylsulfonyl)-7-methoxyimidazo[1,2-a]pyridin-3-yl)-1H-pyrazol-4-yl)-2-(2-chlorophenyl)-N-methylacetamide] the IC50 [1] was > 1 µM, the Emax (RIPK2 (KD)/XIAP (BIR2)) was ≥ 80% and the IC50 (RIPK2 (KD)/XIAP (BIR2)) was > 1 µM. For the same compound, the IC50 [2] was > 2.5 µM.

`COc1cc2ncc(-n3cc(NC(=O)C4(F)CCC5(CC5)CC4)cn3)n2cc1S(=O)(=O)C(C)(C)C` [Example 174, N-(1-(6-(tert-butylsulfonyl)-7-methoxyimidazo[1,2-a]pyridin-3-yl)-1H-pyrazol-4-yl)-6-fluorospiro[2.5]octane-6-carboxamide] was tested, and the IC50 [1] was 0.5 to 1 µM, the Emax (RIPK2 (KD)/XIAP (BIR2)) was ≥ 80% and the IC50 (RIPK2 (KD)/XIAP (BIR2)) was > 1 µM. For the same compound, the IC50 [2] was > 2.5 µM.

`COc1cc2ncc(-n3cc(NC(=O)C4(C)CCCCC4)cn3)n2cc1S(=O)(=O)C(C)(C)C` [Example 175, N-(1-(6-(tert-butylsulfonyl)-7-methoxyimidazo[1,2-a]pyridin-3-yl)-1H-pyrazol-4-yl)-1-methylcyclohexane-1-carboxamide] was tested, and the IC50 [1] was > 1 µM, the Emax (RIPK2 (KD)/XIAP (BIR2)) was 55 to 80% and the IC50 (RIPK2 (KD)/XIAP (BIR2)) was > 1 µM. For the same compound, the IC50 [2] was > 2.5 µM.

`COc1cc2ncc(-c3cc(NC(=O)C4(F)CCCCC4)n(C)n3)n2cc1S(=O)(=O)C(C)(C)C` [Example 176, N-(3-(6-(tert-butylsulfonyl)-7-methoxyimidazo[1,2-a]pyridin-3-yl)-1-methyl-1H-pyrazol-5-yl)-1-fluorocyclohexane-1-carboxamide] was tested, and the IC50 [1] was < 0.2 µM, the Emax (RIPK2 (KD)/XIAP (BIR2)) was ≥ 80% and the IC50 (RIPK2 (KD)/XIAP (BIR2)) was 0.1 to 1 µM. The IC50 [2] was 0.5 to 2.5 µM.

For `COc1cc2ncc(-n3cc(N4CCC5(CCCCC5)C4=O)cn3)n2cc1S(=O)(=O)C(C)(C)C` [Example 181, 2-(1-(6-(tert-butylsulfonyl)-7-methoxyimidazo[1,2-a]pyridin-3-yl)-1H-pyrazol-4-yl)-2-azaspiro[4.5]decan-1-one], the IC50 [1] was > 1 µM, the Emax (RIPK2 (KD)/XIAP (BIR2)) was 30 to 55% and the IC50 (RIPK2 (KD)/XIAP (BIR2)) was > 1 µM. The IC50 [2] was > 2.5 µM.

In the case of `CN1CCC(Nc2cncc(-c3cc(NC(=O)Cc4ccccc4Cl)n(C)n3)c2)CC1` [Example 184, 2-(2-chlorophenyl)-N-(1-methyl-3-(5-((1-methylpiperidin-4-yl)amino)pyridin-3-yl)-1H-pyrazol-5-yl) acetamide], the IC50 [1] is reported as < 0.2 µM, the Emax (RIPK2 (KD)/XIAP (BIR2)) is reported as ≥ 80% and the IC50 (RIPK2 (KD)/XIAP (BIR2)) is reported as 0.1 to 1 µM. The IC50 [2] was > 2.5 µM.

For `COc1cc2ncc(-c3cc(NC(=O)Cc4ccccc4Cl)n(C)n3)n2cc1S(=O)(=O)C(C)(C)C` [Example 185, N-(3-(6-(tert-butylsulfonyl)-7-methoxyimidazo[1,2-a]pyridin-3-yl)-1-methyl-1H-pyrazol-5-yl)-2-(2-chlorophenyl)acetamide], the IC50 [1] was < 0.2 µM, the Emax (RIPK2 (KD)/XIAP (BIR2)) was ≥ 80% and the IC50 (RIPK2 (KD)/XIAP (BIR2)) was 0.01 to 0.1 µM. The IC50 [2] was 0.5 to 2.5 µM.

With `COc1cc2ncc(-c3cc(NC(=O)Cc4ccccc4Cl)n(C)n3)n2cc1C1(F)CCN(C)CC1` [Example 186, 2-(2-chlorophenyl)-N-(3-(6-(4-fluoro-1-methylpiperidin-4-yl)-7-methoxyimidazo[1,2-a]pyridin-3-yl)-1-methyl-1H-pyrazol-5-yl)acetamide] the IC50 [1] was < 0.2 µM, the Emax (RIPK2 (KD)/XIAP (BIR2)) was ≥ 80% and the IC50 (RIPK2 (KD)/XIAP (BIR2)) was 0.01 to 0.1 µM. The IC50 [2] was 0.5 to 2.5 µM.

With `COc1cc2ncc(-c3cc(NC(=O)C4(F)CCCCC4)n(CCO)n3)n2cc1S(=O)(=O)C(C)(C)C` [Example 193, N-(3-(6-(tert-butylsulfonyl)-7-methoxyimidazo[1,2-a]pyridin-3-yl)-1-(2-hydroxyethyl)-1H-pyrazol-5-yl)-1-fluorocyclohexane-1-carboxamide] the IC50 [1] was < 0.2 µM, the Emax (RIPK2 (KD)/XIAP (BIR2)) was ≥ 80% and the IC50 (RIPK2 (KD)/XIAP (BIR2)) was 0.1 to 1 µM. The IC50 [2] was > 2.5 µM.

In the case of `COc1ccn2ncc(-c3cc(NC(=O)C4(F)CCCCC4)n(CCO)n3)c2n1` [compound 194], the IC50 [1] is reported as > 1 µM, the Emax (RIPK2 (KD)/XIAP (BIR2)) is reported as ≤ 30% and the IC50 (RIPK2 (KD)/XIAP (BIR2)) is reported as > 1 µM. For the same compound, the IC50 [2] was > 2.5 µM.
